These results are taken from patent US20150322083A1, “(THIENO[2,3-b][1,5]BENZOXAZEPIN-4-YL)PIPERAZIN-1-YL COMPOUNDS AS SELECTIVE 5-HT2A INVERSE AGONISTS” (Eli Lilly and Company, priority 2014, published 2015).

One data set has as its target 5-HT2B (Homo sapiens, UniProt P41595). The data set is described as follows: 5-HT2B binding (selectivity data). As to the method:
(§1) Curves are evaluated using a 4-parameter logistic nonlinear equation to obtain the concentration of competitor causing 50% inhibition of radioligand binding (IC50). Equilibrium dissociation constants (Ki) are calculated according to the equation Ki=IC50/(1+L/Kd), where L equals the concentration of radioligand used in the experiment and Kd equals the equilibrium dissociation constant of the radioligand for the receptor, determined from standard saturation analysis or homologous competition experiments. Reported values for Ki, where n values are indicated, are shown as geometric mean±the standard error of the mean (SEM), with the number of replicate determinations indicated by n. Geometric means are calculated by the equation GeoMean=10̂(Average(log Ki 1+log Ki 2+ . . . log Ki n)/[…]).
(§2) Further, the compounds of the invention may be tested in binding assays and functional activity assays by well known methods for other physiologically important receptors such as, but not limited to, the hERG channel, other serotonin receptors (specifically 5-HT1B receptors, lack of agonist activity at 5-HT2B receptors, 5-HT2C, 5-HT5, 5-HT6, and 5-HT7 receptors), dopaminergic receptors (specifically D1, D2, and D3), H1 receptors, GABAA receptors, adrenergic receptors and monoamine transporters.

For another data set, the target named is hERG channel (Homo sapiens, UniProt Q12809). In words: hERG channel assay (selectivity data).
Description: as §2
On the technique in general: Block of hERG is tested as a sign of cardiac risk.

Another data set addresses Adrenergic alpha2C (Homo sapiens, UniProt P18825). The data set is described as follows: Adrenergic alpha2C binding. As to the method: as §1, §2
The target in data set [1] is recombinant human 5-HT2A receptor (Homo sapiens, UniProt P28223). In words: 5-HT2A inverse agonism, [35S]GTPγS binding to AV12 membranes (human receptor). The data set is classed as biochemical. The arrangement: expressed in transfected cells; host or cells: AV12 cells, membranes. As to the method:
The inverse agonist activity of compounds of the present invention may be determined by literature recognized assay methods measuring [^35S]GTPγS binding to membranes transfected with 5-HT2A receptors in an in vitro activity assay essentially as described below.
Membranes are prepared from frozen pellets of whole AV12 cells expressing the human or rat 5-HT2A receptor. Cells are thawed on ice and homogenized in homogenization buffer (50 mM Tris-HCl, 0.5 mM EDTA, 1 tablet/100 mL of complete EDTA free protease inhibitor tablets (Roche Cat. No. 05 056 489 001), pH=7.4) with 20 strokes of a teflon-glass homogenizer attached to a motorized overhead stirrer. Centrifuge membranes at 1000 rpm (aprox. 150×g) for 15 min. at 4° C. […] The final supernatant is discarded and the pellet is resuspended in homogenization buffer and its protein content is determined by the method of Bradford using BSA as the standard. […]
Test compound is prepared from a 10 mM DMSO stock solution by serial dilution to provide a 10 point concentration response curve, with a final 1% DMSO concentration when added to the assay mixture. […] This mixture is incubated for 3 hr. with constant shaking at room temperature, centrifuged at 300 rpm for 1 min. with no brake and incubated for 3 more hr. before reading in a microplate scintillation counter.
On the technique in general: GTPγS resists hydrolysis and so accumulates on activated G proteins.

recombinant human 5-HT2A receptor, sequence (P28223 whole entry): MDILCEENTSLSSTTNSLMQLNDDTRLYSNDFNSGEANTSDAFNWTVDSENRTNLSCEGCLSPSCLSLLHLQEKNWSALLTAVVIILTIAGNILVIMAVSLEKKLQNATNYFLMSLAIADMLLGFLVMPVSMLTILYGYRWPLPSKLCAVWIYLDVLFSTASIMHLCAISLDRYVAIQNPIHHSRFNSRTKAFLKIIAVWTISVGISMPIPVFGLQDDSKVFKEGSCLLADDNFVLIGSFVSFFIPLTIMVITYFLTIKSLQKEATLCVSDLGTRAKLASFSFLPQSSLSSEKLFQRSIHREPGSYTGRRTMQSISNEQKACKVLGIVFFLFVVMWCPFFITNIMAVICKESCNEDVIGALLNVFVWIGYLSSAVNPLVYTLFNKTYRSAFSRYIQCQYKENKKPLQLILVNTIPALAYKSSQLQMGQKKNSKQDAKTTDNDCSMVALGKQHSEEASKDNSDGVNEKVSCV
5-HT2B, sequence (P41595 whole entry, species assumed): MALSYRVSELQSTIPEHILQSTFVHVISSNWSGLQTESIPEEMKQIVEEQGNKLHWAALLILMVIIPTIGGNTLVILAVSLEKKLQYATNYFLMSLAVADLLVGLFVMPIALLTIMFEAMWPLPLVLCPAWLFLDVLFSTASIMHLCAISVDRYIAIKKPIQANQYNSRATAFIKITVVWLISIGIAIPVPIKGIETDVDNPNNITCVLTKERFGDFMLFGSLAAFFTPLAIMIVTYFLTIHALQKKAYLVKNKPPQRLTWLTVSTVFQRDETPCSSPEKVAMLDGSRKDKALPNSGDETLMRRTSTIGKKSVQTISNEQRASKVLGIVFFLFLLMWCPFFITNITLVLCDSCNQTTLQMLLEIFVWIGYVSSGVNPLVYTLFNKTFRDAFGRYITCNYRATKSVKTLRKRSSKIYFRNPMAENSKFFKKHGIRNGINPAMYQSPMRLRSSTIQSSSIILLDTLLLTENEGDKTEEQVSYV
hERG channel, sequence (Q12809 whole entry): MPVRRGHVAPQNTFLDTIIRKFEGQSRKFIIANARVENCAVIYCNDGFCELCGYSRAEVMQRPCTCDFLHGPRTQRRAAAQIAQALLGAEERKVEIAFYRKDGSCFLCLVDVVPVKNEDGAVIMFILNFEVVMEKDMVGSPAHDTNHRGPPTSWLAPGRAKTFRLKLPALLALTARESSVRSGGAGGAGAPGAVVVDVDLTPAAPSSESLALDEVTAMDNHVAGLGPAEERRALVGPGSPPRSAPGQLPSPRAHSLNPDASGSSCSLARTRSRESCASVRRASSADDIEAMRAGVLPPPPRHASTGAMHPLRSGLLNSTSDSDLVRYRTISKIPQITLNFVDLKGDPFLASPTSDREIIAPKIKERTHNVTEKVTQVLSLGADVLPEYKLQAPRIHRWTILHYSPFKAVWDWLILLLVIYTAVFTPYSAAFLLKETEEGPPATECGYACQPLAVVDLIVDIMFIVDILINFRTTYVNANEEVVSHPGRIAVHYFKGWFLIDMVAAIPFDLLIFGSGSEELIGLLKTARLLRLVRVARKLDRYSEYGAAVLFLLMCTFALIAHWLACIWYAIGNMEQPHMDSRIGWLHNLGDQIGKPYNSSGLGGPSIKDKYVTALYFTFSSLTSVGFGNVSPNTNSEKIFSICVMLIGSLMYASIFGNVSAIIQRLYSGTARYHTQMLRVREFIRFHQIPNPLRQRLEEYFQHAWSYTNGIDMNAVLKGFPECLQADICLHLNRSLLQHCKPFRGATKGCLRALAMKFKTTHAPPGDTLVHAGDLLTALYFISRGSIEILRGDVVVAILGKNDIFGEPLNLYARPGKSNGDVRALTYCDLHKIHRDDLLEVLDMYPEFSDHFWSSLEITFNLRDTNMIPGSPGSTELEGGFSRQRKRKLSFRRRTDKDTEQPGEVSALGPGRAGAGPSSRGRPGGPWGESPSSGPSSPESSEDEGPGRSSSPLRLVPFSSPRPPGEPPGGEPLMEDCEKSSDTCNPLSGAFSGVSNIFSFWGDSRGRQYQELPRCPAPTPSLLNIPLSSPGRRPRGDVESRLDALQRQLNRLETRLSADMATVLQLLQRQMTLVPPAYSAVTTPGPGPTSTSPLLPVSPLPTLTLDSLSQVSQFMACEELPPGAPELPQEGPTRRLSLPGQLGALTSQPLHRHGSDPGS
Adrenergic alpha2C, sequence (P18825 whole entry): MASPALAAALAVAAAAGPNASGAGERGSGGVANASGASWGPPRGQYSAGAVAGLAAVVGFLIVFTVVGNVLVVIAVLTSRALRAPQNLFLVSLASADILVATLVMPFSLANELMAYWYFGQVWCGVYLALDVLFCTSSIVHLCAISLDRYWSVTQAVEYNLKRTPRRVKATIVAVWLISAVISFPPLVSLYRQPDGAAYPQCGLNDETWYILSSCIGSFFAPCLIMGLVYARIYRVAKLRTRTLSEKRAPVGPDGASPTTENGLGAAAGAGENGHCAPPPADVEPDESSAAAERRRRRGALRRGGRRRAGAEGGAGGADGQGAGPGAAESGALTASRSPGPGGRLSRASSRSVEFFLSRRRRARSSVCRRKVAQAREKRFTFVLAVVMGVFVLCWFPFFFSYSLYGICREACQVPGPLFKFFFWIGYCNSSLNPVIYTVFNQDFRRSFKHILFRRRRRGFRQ

In general, Ki refers to the equilibrium dissociation constant of an inhibitor or competing ligand from its target. A word on the EC50: it is the midpoint of the concentration-response curve. `Cc1ccc2c(c1)Oc1sc(SC(C)C)cc1C(N1CCN(CC(C)(C)C(=O)O)CC1)=N2` [Example 1, 3-[4-(2-isopropylsulfanyl-8-methyl-thieno[2,3-b][1,5]benzoxazepin-4-yl)piperazin-1-yl]-2,2-dimethyl-propanoic acid]: the figures for the Ki at 5-HT2B and at Adrenergic alpha2C were 763 nM and above 6430 nM, respectively. On hERG channel, the “hERG Channel” value is above 100 µM. Further, the “5-HT2A inverse agonism (in words)” value in data set [1] was “inverse agonist of the 5-HT2A receptor”. The EC50 in data set [1] (recombinant human receptor, n=2, read-out: EC50, inhibition of intrinsic activity of the 5-HT2A receptor) amounted to 85 nM.
